Test results from patent US20240041042A1, “1-(PYRIDYL)-5-AZINYLPYRAZOLE DERIVATIVES, AND THEIR USE FOR CONTROL OF UNDESIRED PLANT GROWTH” (Bayer Aktiengesellschaft, priority 2020, published 2024).
Read-outs that look alike come from different tables or passages of the source.

Legend:
Assay type in all cases: in vivo
[1] = test system: Amaranthus retroflexus (AMARE); assay: Pre-emergence herbicidal action against AMARE; conditions: visual scoring after about 3 weeks vs untreated controls
Summary of the method: (§1)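 Application rates ran to 320 g/ha or lower, with several dosages tested on the same weeds. The compound, as wettable powder or emulsion concentrate, is sprayed pre-emergence onto soil over sown seeds; greenhouse growth follows, and effect is rated visually after roughly 3 weeks.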

Avena fatua (AVEFA) [2] = assay: Pre-emergence herbicidal action against AVEFA; conditions: 320 g/ha, visual scoring after about 3 weeks vs untreated controls
Summary of the method: as §1

[3] = test system: Verconica persica (VERPE); assay: Post-emergence herbicidal action against VERPE
Summary of the method: (§2)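 Greenhouse plants sprayed at the one-leaf stage, 2–3 weeks after sowing, with WP or EC formulations plus 0.5% additive at 600 l/ha water. Activity rated visually after about 3 weeks versus untreated controls (100% = dead, 0% = like control), at 320 g/ha or lower.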

[4] = test system: Matricaria inodora (MATIN); assay: Pre-emergence herbicidal action against MATIN; conditions: dosage 320 g/ha
Summary of the method: as §1

Avena fatua (AVEFA) [5] = assay: Post-emergence herbicidal action against AVEFA; conditions: visual rating about 3 weeks after treatment
Summary of the method: as §2

[6] = test system: Alopecurus myosuroides (ALOMY); assay: Pre-emergence herbicidal action against ALOMY; conditions: 320 g/ha; scored visually after about 3 weeks; 100% = plants have died
Summary of the method: as §1

[7] = test system: Echinochloa crus-galli (ECHCG); assay: Post-emergence herbicidal action against ECHCG
Summary of the method: as §2

Setaria viridis (SETVI) [8] = assay: Pre-emergence herbicidal action against SETVI; conditions: dosage 320 g/ha
Summary of the method: as §1

Zea mays (ZEAMX) [9] = conditions: pre-emergence, 80 g/ha, crop plant compatibility, in comparison to untreated controls
Summary of the method: (§3)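 Crop injury rated visually in percent against untreated plants roughly 3 weeks after treatment (0% no effect, 100% plants dead). Compounds, as WP or EC with 0.5% additive in 600 l/ha water, were applied to the covering soil right after sowing; greenhouse growth. Suffixes a, b, c denote different dosages.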

Oryza sativa (ORYSA) [10] = conditions: pre-emergence, crop plant compatibility, in comparison to untreated controls
Summary of the method: as §3

[11] = test system: Verconica persica (VERPE); assay: Pre-emergence herbicidal action against VERPE; conditions: dosage 320 g/ha
Summary of the method: as §1

[12] = test system: Alopecurus myosuroides (ALOMY); assay: Post-emergence herbicidal action against ALOMY; conditions: visual rating about 3 weeks after treatment vs untreated controls (100% = plants have died, 0% = like control plants)
Summary of the method: as §2

[13] = test system: Echinochloa crus-galli (ECHCG); assay: Pre-emergence herbicidal action against ECHCG; conditions: dosage 320 g/ha
Summary of the method: as §1

[14] = test system: Pharbitis purpurea (PHBPU); assay: Pre-emergence herbicidal action against PHBPU; conditions: dosage 320 g/ha
Summary of the method: as §1

[15] = test system: Polygonum convolvulus (POLCO); assay: Pre-emergence herbicidal action against POLCO
Summary of the method: as §1

Lolium rigidum (LOLRI) [16] = assay: Pre-emergence herbicidal action against LOLRI; conditions: dosage 320 g/ha
Summary of the method: as §1

Zea mays (ZEAMX) [17] = conditions: for Post-emergence action against ZEAMX in %: crop plant compatibility, effect vs untreated controls
Summary of the method: (§4)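 Test crops were treated 2 to 3 weeks after sowing, once they reached one leaf, by spraying compound in water with 0.5% additive at 600 l/ha. Visual scoring compared them with untreated controls roughly 3 weeks on, and appendices a, b and c denote different doses.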

Oryza sativa (ORYSA) [18] = conditions: crop plant compatibility
Summary of the method: as §4

Viola tricolor (VIOTR) [19] = assay: Pre-emergence herbicidal action against VIOTR
Summary of the method: as §1

[20] = test system: Abutilon theophrasti (ABUTH); assay: Post-emergence herbicidal action against ABUTH; conditions: visual rating about 3 weeks after treatment vs untreated controls (100% = plants have died, 0% = like control plants)
Summary of the method: as §2

Viola tricolor (VIOTR) [21] = assay: Post-emergence herbicidal action against VIOTR
Summary of the method: as §2

Lolium rigidum (LOLRI) [22] = assay: Post-emergence herbicidal action against LOLRI; conditions: dosage 320 g/ha
Summary of the method: as §2

[23] = test system: Amaranthus retroflexus (AMARE); assay: Post-emergence herbicidal action against AMARE
Summary of the method: as §2

[24] = test system: Matricaria inodora (MATIN); assay: Post-emergence herbicidal action against MATIN; conditions: dosage 320 g/ha
Summary of the method: as §2

[25] = test system: Pharbitis purpurea (PHBPU); assay: Post-emergence herbicidal action against PHBPU
Summary of the method: as §2

[26] = test system: Polygonum convolvulus (POLCO); assay: Post-emergence herbicidal action against POLCO; conditions: dosage 320 g/ha
Summary of the method: as §2

Setaria viridis (SETVI) [27] = assay: Post-emergence herbicidal action against SETVI
Summary of the method: as §2

[28] = test system: Triticum aestivum (TRZAS); conditions: crop plant compatibility, 80 g/ha, effect vs untreated controls
Summary of the method: as §4

[29] = 80 g/ha, effect in comparison to untreated controls
[30] = 320 g/ha, visual rating about 3 weeks after treatment

Structure (SMILES) | Pre-emergence action against AMARE in % ([1]; 80 g/ha) [%] | Pre-emergence action against AMARE in % ([1]; 320 g/ha) [%] | Pre-emergence action against AVEFA in % (Avena fatua (AVEFA) [2]) [%] | Pre-emergence action against MATIN in % [4] [%] | Post-emergence action against AVEFA in % (Avena fatua (AVEFA) [5]; 80 g/ha) [%] | Pre-emergence action against ALOMY [6] [%] | Post-emergence action against ECHCG in % ([7]; dosage 80 g/ha) [%] | Pre-emergence action against SETVI in % (Setaria viridis (SETVI) [8]) [%] | Pre-emergence action against ZEAMX in % (Zea mays (ZEAMX) [9]) [%] | Pre-emergence action against ORYSA in % (Oryza sativa (ORYSA) [10]; 80 g/ha) [%] | Pre-emergence action against VERPE in % [11] [%] | Post-emergence action against ALOMY in % ([12]; 80 g/ha) [%] | Pre-emergence action against ECHCG in % [13] [%] | Pre-emergence action against POLCO in % ([15]; dosage 320 g/ha) [%] | Pre-emergence action against LOLRI in % (Lolium rigidum (LOLRI) [16]) [%] | Post-emergence action against ZEAMX in % (Zea mays (ZEAMX) [17]; 80 g/ha) [%] | Post-emergence action against ORYSA in % (Oryza sativa (ORYSA) [18]; [29]) [%] | Pre-emergence action against VIOTR in % (Viola tricolor (VIOTR) [19]; 320 g/ha, Viola tricolor) [%] | Pre-emergence action against VIOTR in % (Viola tricolor (VIOTR) [19]; dosage 80 g/ha) [%] | Post-emergence action against VIOTR in % (Viola tricolor (VIOTR) [21]; 320 g/ha) [%] | other results
CCOC(=O)COc1nn(-c2ncccc2Cl)c(-c2ccc(F)nc2)c1Br [Example I-23] | 90 | 100 | 90 | 90 | 90 | 100 | 80 | 100 | 10 | 10 | 90 | 90 | 100 | 90 | 100 | 10 | 10 | 100 | 90 | – | Post-emergence action against VERPE in % ([3]; dosage 80 g/ha): 80%; Pre-emergence action against PHBPU in % [14]: 90%; Post-emergence action against ZEAMX in % (crop plant compatibility) (Zea mays (ZEAMX) [17]; 20 g/ha, ZEAMX, effect in comparison to untreated controls): 0%; Post-emergence action against ORYSA in % (Oryza sativa (ORYSA) [18]; 20 g/ha, effect vs untreated controls): 0%
COC(=O)COc1nn(-c2ncccc2Cl)c(-c2ccc(F)nc2)c1Br [Example I-28] | 90 | 100 | 100 | 90 | 100 | 100 | 80 | 100 | 10 | 0 | 100 | 100 | 100 | 90 | 100 | 0 | 0 | 100 | 100 | 80 | Post-emergence action against VERPE in % ([3]; 320 g/ha, VERPE): 80%; Post-emergence action against AVEFA in % (Avena fatua (AVEFA) [5]; 320 g/ha): 100%; Post-emergence action against ECHCG in % ([7]; dosage 320 g/ha): 90%; Post-emergence action against ABUTH in % ([20]; 80 g/ha): 80%; Post-emergence action against ABUTH in % ([20]; 320 g/ha): 90%; Post-emergence action against VIOTR in % (Viola tricolor (VIOTR) [21]; 80 g/ha): 80%; Post-emergence action against LOLRI in % (Lolium rigidum (LOLRI) [22]): 90%; Post-emergence action against ALOMY in % ([12]; 320 g/ha): 100%; Post-emergence action against AMARE in % ([23]; 80 g/ha, visual rating about 3 weeks after treatment vs untreated controls (100% = plants have died, 0% = like control plants)): 90%; Post-emergence action against AMARE in % [23, 30]: 90%; Post-emergence action against MATIN in % [24]: 80%; Pre-emergence action against POLCO in % ([15]; dosage 80 g/ha): 80%; Post-emergence action against PHBPU in % ([25]; dosage 80 g/ha): 80%; Post-emergence action against PHBPU in % ([25]; dosage 320 g/ha): 80%; Post-emergence action against POLCO in % [26]: 80%; Post-emergence action against SETVI in % (Setaria viridis (SETVI) [27]; dosage 80 g/ha): 80%; Post-emergence action against SETVI in % (Setaria viridis (SETVI) [27]; dosage 320 g/ha): 90%
C=CCNC(=O)COc1nn(-c2ncccc2F)c(-c2ccc(F)nc2)c1Br [Example I-31] | – | 90 | 80 | – | – | – | – | 90 | 0 | 0 | 90 | – | 90 | 80 | – | 0 | 0 | 90 | – | 80 | Pre-emergence action against ORYSA in % (Oryza sativa (ORYSA) [10]; 320 g/ha): 0%; Post-emergence action against AMARE in % [23, 30]: 80%; Post-emergence action against POLCO in % [26]: 80%; Post-emergence action against TRZAS in % [28]: 10%; Post-emergence action against ZEAMX in % (Zea mays (ZEAMX) [17]; 320 g/ha): 0%; Post-emergence action against ORYSA in % (Oryza sativa (ORYSA) [18]; 320 g/ha, effect in comparison to untreated controls): 10%
